Patent publication US10744209B2, “Biodegradable polymeric nanoparticle conjugates and use thereof” (NEW YORK UNIVERSITY, priority 2015, dated 2020)

Key:
[1] = cited from earlier work
[2] = tested on: RAW264.7 cells; assay: RANKL-induced osteoclast differentiation, TRAP staining; type: cell-based; details: 50 ng/ml RANKL; CGS21680 10^−6M; four days
Method: Tartrate-resistant acid phosphatase (TRAP) staining was carried out. The number of TRAP-positive MNCs containing ≥3 nuclei/cell was scored.

| Structure (SMILES) | half-life in vivo [1] [s] | RANKL-induced osteoclast differentiation [2] |
| --- | --- | --- |
| Nc1ncnc2c1ncn2[C@@H]1O[C@H](CO)[C@@H](O)[C@H]1O [Adenosine, adenosine] | < 10 | – |
| CCNC(=O)[C@H]1O[C@@H](n2cnc3c(N)nc(NCCc4ccc(CCC(=O)O)cc4)nc32)[C@H](O)[C@@H]1O [CGS21680] | – | block |
